Measured values taken from patent publication US20240000724A1, “Compositions and Methods for Treatment or Prevention of Oral Mucositis” (PATHWAYS BIOSCIENCE, LLC, priority 2015, published 2024).

Tested on: Nrf2 (HepG2 cells)
Assay: Nrf2 induction by PB201 analogs in HepG2 Nrf2/ARE promoter-luciferase reporter cells
Format: cell-based, human
Conditions: 0-7 ug/mL, read 24 h after start of stimulation
From the text: In this Example, the effects of compounds that are structurally related to 1,3-diphenyl-1,3-propanedione are investigated.

Structure (SMILES) | Nrf2 activation
O=C(CCCC(=O)c1ccccc1)c1ccccc1 [1,3-dibenzoylpropane] | activated Nrf2
O=C(c1ccccc1)C(Br)C(=O)c1ccccc1 [2-bromo-1,3-diphenyl-1,3-propanedione] | activated Nrf2
